In patent US12202801B1 (priority 2023, dated 2025) one finds MIC data, which are given here for one compound.

The experiment relates to Mycobacterium tuberculosis H37Rv. As to the kind of experiment: Resazurin Microplate Assay (REMA), anti-tubercular activity, H37Rv strain. Format: cell-based. The settings on record: 192 h, read-out: Anti-tubercular activity against Mycobacterium tuberculosis (MIC), H37Rv. On the technique in general: Alamar Blue is a resazurin reagent that responds to reducing activity.

Structures are written as SMILES.

As to `N#Cc1ccc(C(=O)C[n+]2ccc(C#N)cc2)cc1.[Br-]` [Compound 3f, 4-Cyano-1-(2-(4-cyanophenyl)-2-oxoethyl)pyridin-1-ium bromide], the MIC is 1 µg/mL.

Broadly, the MIC is the smallest concentration in the dilution series that meets the test's criterion for growth inhibition.
